pIC50: −log10 of the molar value. Active and inactive are the calls of the source. The calls are words filed in the database; no cut-off is given here.
Columns and labels:
[1] = tested on: LNCaP; experiment: Induction of cell cycle arrest in human LNCAP cells assessed as accumulation at G1 phase at 40 uM after 24 hrs by propidium iodide staining based FACS analysis (reference value: 69.5%); assay type: functional
[2] = tested on: LNCaP; conditions: Homo sapiens, at 10 µM
Description: Inhibition of HDAC in human LNCAP cells assessed as down regulation of androgen receptor expression at 10 uM after 24 hrs by Western blot analysis

[3] = tested on: LNCaP; experiment: Induction of cell cycle arrest in human LNCAP cells assessed as accumulation at S phase at 40 uM after 24 hrs by propidium iodide staining based FACS analysis (reference value: […]); assay type: functional
[4] = tested on: LNCaP; experiment: Induction of cell cycle arrest in human LNCAP cells assessed as accumulation at greater G2 phase at 40 uM after 24 hrs by propidium iodide staining based FACS analysis (reference value: 0.20%); assay type: functional
[5] = Cytotoxicity against human MCF7 cells assessed as cell growth inhibition at 100 uM after 72 hrs by MTT assay; assay type: functional; conditions: MCF7, 72 h, read-out: GI
[6] = tested on: LNCaP; experiment: Induction of cell cycle arrest in human LNCAP cells assessed as accumulation at lesser G1 phase at 40 uM after 24 hrs by propidium iodide staining based FACS analysis (reference value: 1.59%); assay type: functional
[7] = tested on: LNCaP; experiment: Induction of cell cycle arrest in human LNCAP cells assessed as accumulation at G1 phase at 2.5 uM after 24 hrs by propidium iodide staining based FACS analysis (reference value: 69.5%); assay type: functional
[8] = tested on: BEAS2B; conditions: Homo sapiens, at 1 µM
Description: Inhibition of HDAC in human BEAS2B cells assessed as reduction of NTHi-induced NFkappaB activation at 1 uM preincubated for 1 hr followed by NTHi stimulation for 5 hrs by luciferase reporter gene assay

[9] = target: T1, Prostaglandin G/H synthase 2 (Homo sapiens) (UniProt P35354); experiment: Inhibition of recombinant human COX2 at 10 uM using arachidonic acid as substrate preincubated for 15 mins followed by substrate addition for 2 mins by Cayman based fluorescence assay
T1 sequence (whole entry): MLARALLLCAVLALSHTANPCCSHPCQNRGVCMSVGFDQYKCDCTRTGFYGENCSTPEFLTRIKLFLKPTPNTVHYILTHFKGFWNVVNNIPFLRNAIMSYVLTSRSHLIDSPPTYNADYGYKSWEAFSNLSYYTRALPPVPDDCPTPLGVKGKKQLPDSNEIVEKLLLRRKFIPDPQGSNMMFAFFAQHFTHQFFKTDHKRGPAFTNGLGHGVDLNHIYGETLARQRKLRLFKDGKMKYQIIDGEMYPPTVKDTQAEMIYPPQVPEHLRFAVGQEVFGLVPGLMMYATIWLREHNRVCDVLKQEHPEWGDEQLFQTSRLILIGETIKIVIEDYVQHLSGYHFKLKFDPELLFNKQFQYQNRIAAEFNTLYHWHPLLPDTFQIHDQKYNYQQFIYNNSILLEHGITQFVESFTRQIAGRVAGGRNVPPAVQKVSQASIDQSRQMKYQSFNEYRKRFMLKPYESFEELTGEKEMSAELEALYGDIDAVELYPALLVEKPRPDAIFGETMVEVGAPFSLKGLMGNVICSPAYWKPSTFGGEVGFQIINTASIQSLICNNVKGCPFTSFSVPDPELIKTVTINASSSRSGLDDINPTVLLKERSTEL

[10] = tested on: LNCaP; experiment: Induction of cell cycle arrest in human LNCAP cells assessed as accumulation at G2 phase at 2.5 uM after 24 hrs by propidium iodide staining based FACS analysis (reference value: 1.08%); assay type: functional
[11] = target: T2, Histone deacetylase 8 (Homo sapiens, UniProt Q9BY41); experiment: Inhibition of HDAC8 (unknown origin) after 2.5 hrs by SAMDI mass spectroscopic analysis
T2 sequence (Q9BY41 whole entry): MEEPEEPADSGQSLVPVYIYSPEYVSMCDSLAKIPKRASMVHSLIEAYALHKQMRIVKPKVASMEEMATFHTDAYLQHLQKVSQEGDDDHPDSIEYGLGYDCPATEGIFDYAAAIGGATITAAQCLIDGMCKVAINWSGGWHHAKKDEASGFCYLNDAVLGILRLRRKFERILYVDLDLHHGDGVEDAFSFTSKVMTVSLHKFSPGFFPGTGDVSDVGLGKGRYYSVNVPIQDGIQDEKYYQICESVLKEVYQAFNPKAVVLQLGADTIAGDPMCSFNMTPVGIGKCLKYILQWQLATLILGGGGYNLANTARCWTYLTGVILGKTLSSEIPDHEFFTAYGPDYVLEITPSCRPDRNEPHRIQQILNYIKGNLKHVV

[12] = target: T3, Prostaglandin G/H synthase 2 (Homo sapiens, UniProt P35354); experiment: Inhibition of recombinant human COX2 using arachidonic acid as substrate preincubated for 15 mins followed by substrate addition for 2 mins by Cayman based fluorescence assay
T3 sequence (P35354 whole entry): T1 sequence (whole entry)

[13] = target: Histone deacetylase 3 (Homo sapiens, UniProt O15379); experiment: Inhibition of HDAC3 (unknown origin) after 5 hrs by SAMDI mass spectroscopic analysis
[14] = target: T4, Protein deacetylase HDAC6 (Homo sapiens, UniProt Q9UBN7); experiment: Inhibition of HDAC6 (unknown origin) after 20 hrs by SAMDI mass spectroscopic analysis
T4 sequence (Q9UBN7 whole entry): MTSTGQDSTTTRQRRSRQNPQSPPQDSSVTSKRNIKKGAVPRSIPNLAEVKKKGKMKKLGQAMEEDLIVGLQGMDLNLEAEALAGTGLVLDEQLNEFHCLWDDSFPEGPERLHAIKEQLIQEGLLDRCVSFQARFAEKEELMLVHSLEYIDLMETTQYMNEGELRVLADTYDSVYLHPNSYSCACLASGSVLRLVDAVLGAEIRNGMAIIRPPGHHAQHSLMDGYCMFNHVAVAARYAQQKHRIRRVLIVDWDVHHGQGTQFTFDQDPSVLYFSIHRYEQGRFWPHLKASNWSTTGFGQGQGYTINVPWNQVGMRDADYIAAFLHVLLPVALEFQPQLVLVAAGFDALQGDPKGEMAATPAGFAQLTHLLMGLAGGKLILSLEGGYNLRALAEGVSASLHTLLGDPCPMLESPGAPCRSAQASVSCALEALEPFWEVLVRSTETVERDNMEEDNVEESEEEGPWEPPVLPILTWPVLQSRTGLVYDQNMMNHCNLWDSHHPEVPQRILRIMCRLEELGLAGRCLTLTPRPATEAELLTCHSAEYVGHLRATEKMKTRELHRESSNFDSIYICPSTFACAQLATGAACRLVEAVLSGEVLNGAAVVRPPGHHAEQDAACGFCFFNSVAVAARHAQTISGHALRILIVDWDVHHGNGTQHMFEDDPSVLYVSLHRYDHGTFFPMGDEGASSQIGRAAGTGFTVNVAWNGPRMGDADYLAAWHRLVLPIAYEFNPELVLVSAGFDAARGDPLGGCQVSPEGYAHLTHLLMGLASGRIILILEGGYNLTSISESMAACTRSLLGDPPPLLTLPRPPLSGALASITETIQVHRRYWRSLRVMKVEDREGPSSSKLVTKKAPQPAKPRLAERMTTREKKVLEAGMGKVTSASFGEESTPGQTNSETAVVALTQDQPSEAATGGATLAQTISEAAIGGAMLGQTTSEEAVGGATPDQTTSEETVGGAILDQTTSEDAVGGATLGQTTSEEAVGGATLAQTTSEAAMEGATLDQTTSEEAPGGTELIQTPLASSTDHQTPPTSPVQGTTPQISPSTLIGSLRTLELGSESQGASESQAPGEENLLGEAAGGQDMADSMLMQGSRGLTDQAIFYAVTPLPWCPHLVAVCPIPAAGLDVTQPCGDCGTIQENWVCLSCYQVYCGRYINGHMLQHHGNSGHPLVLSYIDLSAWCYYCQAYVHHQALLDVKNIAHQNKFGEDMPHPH

[15] = tested on: LNCaP; experiment: Induction of cell cycle arrest in human LNCAP cells assessed as accumulation at lesser G1 phase at 2.5 uM after 24 hrs by propidium iodide staining based FACS analysis (reference value: 1.59%); assay type: functional
[16] = tested on: LNCaP; experiment: Induction of cell cycle arrest in human LNCAP cells assessed as accumulation at greater G2 phase at 2.5 uM after 24 hrs by propidium iodide staining based FACS analysis (reference value: 0.20%); assay type: functional
[17] = tested on: LNCaP; experiment: Induction of cell cycle arrest in human LNCAP cells assessed as accumulation at S phase at 2.5 uM after 24 hrs by propidium iodide staining based FACS analysis (reference value: […]); assay type: functional
[18] = target: Histone deacetylase 1 (Homo sapiens, UniProt Q13547); experiment: Inhibition of HDAC1 (unknown origin) after 24 hrs by SAMDI mass spectroscopic analysis
[19] = target: T5, Protein deacetylase HDAC6 (Homo sapiens) (UniProt Q9UBN7); experiment: Inhibition of HDAC6 in human LNCAP cells assessed as acetylated tubulin accumulation in cytosol at 1.5 uM after 24 hrs by Western blot analysis; assay type: cell-based
T5 sequence (whole entry): T4 sequence (Q9UBN7 whole entry)

[20] = tested on: LNCaP; experiment: Inhibition of class 1 HDAC in human LNCAP cells assessed as acetylated histone H4 accumulation at 1.5 uM after 24 hrs by Western blot analysis; assay type: cell-based
[21] = Cytotoxicity against human DU145 cells assessed as cell growth inhibition after 72 hrs by MTT assay; assay type: functional, cell-based; conditions: DU-145, 72 h
[22] = Cytotoxicity against human A549 cells assessed as cell growth inhibition after 72 hrs by MTT assay; assay type: functional, cell-based; conditions: A549, 72 h
[23] = Cytotoxicity against human LNCAP cells assessed as cell growth inhibition after 72 hrs by MTT assay; assay type: functional, cell-based
[24] = Cytotoxicity against African green monkey Vero cells assessed as cell growth inhibition after 72 hrs by MTT assay; assay type: toxicity, cell-based; conditions: African green monkey (Chlorocebus sabaeus)
[25] = tested on: LNCaP; experiment: Inhibition of HDAC in human LNCAP cells assessed as down regulation of COX2 expression at 1.5 uM after 24 hrs by Western blot analysis; assay type: cell-based
[26] = Cytotoxicity against human HeLa cells assessed as cell growth inhibition after 72 hrs by MTT assay
[27] = Cytotoxicity against human HCT116 cells assessed as cell growth inhibition after 72 hrs by MTT assay; assay type: functional, cell-based; conditions: HCT-116, 72 h
[28] = target: Histone deacetylase 2 (Homo sapiens, UniProt Q92769); experiment: Inhibition of HDAC2 (unknown origin) after 24 hrs by SAMDI mass spectroscopic analysis
[29] = Cytotoxicity against human MCF7 cells assessed as cell growth inhibition after 72 hrs by MTT assay; assay type: functional, cell-based; conditions: MCF7, 72 h
[30] = tested on: LNCaP; experiment: Induction of cell cycle arrest in human LNCAP cells assessed as accumulation at G2 phase at 40 uM after 24 hrs by propidium iodide staining based FACS analysis (reference value: 1.08%); assay type: functional

Histone deacetylase 3, sequence (O15379 whole entry): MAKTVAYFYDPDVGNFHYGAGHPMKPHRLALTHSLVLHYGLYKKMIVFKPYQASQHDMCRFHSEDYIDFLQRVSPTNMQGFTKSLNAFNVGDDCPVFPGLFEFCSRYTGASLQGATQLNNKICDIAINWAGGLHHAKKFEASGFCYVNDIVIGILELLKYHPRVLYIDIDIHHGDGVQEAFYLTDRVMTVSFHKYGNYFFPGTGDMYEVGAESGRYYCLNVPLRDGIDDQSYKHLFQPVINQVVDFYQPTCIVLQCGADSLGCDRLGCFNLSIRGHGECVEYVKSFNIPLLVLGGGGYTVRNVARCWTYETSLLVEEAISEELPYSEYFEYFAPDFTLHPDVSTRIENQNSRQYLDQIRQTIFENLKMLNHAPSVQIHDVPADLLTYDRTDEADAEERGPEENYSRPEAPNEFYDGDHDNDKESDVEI
Histone deacetylase 1, sequence (Q13547 whole entry): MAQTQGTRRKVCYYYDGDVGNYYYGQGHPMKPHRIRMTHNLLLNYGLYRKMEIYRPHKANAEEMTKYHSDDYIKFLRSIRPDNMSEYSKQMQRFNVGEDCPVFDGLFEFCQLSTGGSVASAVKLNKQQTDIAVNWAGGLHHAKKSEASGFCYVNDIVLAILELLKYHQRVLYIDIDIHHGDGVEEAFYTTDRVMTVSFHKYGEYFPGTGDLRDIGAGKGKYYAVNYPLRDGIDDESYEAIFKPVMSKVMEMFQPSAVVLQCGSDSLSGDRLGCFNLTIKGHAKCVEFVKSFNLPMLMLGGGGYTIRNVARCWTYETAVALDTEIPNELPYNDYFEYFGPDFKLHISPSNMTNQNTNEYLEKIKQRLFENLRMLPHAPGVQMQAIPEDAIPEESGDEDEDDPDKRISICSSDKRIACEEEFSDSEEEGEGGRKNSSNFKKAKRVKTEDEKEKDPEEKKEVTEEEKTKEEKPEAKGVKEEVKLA
Histone deacetylase 2, sequence (Q92769 whole entry): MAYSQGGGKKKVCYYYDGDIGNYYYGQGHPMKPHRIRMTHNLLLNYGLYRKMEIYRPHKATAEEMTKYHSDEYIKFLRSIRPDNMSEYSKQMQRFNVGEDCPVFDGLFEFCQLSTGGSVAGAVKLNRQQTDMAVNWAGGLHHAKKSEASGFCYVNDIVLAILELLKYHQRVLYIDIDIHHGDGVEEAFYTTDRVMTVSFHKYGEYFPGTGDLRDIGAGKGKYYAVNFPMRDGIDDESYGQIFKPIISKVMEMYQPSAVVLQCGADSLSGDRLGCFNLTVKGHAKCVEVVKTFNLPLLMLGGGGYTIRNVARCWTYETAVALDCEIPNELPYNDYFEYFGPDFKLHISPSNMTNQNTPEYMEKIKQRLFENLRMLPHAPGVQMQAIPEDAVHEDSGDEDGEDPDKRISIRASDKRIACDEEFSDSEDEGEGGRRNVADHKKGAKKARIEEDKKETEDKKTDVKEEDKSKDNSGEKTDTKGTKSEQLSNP

inhibition [9] [%] | pIC50 [11] | pIC50 [13] | pIC50 [14] | pIC50 [18] | pIC50 [28] | Compound | Activity [1] [%] | Activity [3] [%] | Activity [4] [%] | inhibition of growth at 100 µM [5] [%] | Activity [6] [%] | Activity [7] [%] | inhibition [8] | Activity [10] [%] | Activity [15] [%] | Activity [16] [%] | Activity [17] [%] | pIC50 [27] | also measured
– | – | – | – | – | – | COc1ccc2c(c1)c(CC(=O)O)c(C)n2C(=O)c1ccc(Cl)cc1 [INDOMETHACIN] | 71.5 | 23.5 | 0.88 | 5.2 | 2.81 | – | – | – | – | – | – | – | inhibition [2]: Active
60.2 | 6.46 | 6.47 | 7.30 | 6.58 | – | Cc1ccc(-c2cc(C(=O)NCCCCCCC(=O)NO)nn2-c2ccc(S(C)(=O)=O)cc2)cc1 | – | – | – | – | – | 85.9 | Active | 0.5 | 0.029 | 0.21 | 13.8 | – | pIC50 [12]: 5.35
50.8 | 6.87 | 7.46 | 8.00 | 7.05 | 6.39 | COC(=O)Cc1c(C)n(Cc2ccc(-c3cn(CCCCCCC(=O)NO)nn3)cc2)c2ccc(OC)cc12 | – | – | – | – | – | 46.7 | Active | 1.87 | 0.053 | 2.06 | 47.1 | 5.78 | inhibition [19]: Active; inhibition [20]: Active; pIC50 [21]: 5.09; pIC50 [22]: 5.09; pIC50 [23]: 5.87; IC50 at 72 h [24]: 5820 nM; inhibition [25]: Active; pIC50 [26]: 5.40; pIC50 [29]: 5.02
40.6 | 6.94 | 7.23 | 7.66 | 6.95 | 6.52 | COc1ccc2c(c1)c(CC(=O)O)c(C)n2Cc1ccc(-c2cn(CCCCCCC(=O)NO)nn2)cc1 | – | – | – | 47.8 | – | – | – | – | – | – | – | 5.00 | –
– | – | – | – | – | – | Cc1ccc(-c2cc(C(F)(F)F)nn2-c2ccc(S(N)(=O)=O)cc2)cc1 [CELECOXIB] | 69.2 | 28.4 | 0.35 | – | 0.59 | – | – | – | – | – | – | – | Activity [30]: 0.85%

— ChEMBL document CHEMBL3875218, “Bifunctional conjugates with potent inhibitory activity towards cyclooxygenase and histone deacetylase” (Bioorg Med Chem, 2017)
